These results are taken from PubChem BioAssay AID1996.

Converted amounts (≈) assume the structure as drawn.

The conditions of the data set: buffer; pH 7.4; 200.0 µM.
The molecule `O=C1NC(=O)N(Cc2ccc(F)cc2)C(=O)/C1=C\c1ccoc1` yielded a kinetic solubility of 46.6 µg/mL (≈ 148 µM). The result for `Nc1nc(-c2cc3ccccc3o2)cs1` reads 3.3 µg/mL (≈ 15.3 µM); that for `Cc1cc(NS(=O)(=O)c2ccc(NC(=O)COc3ccc(C#N)cc3)cc2)nc(C)n1`, > 65.6 µg/mL; that for `COc1cc(C)nc(-n2nc(C)cc2OC)n1`, > 35.1 µg/mL. The molecule `CCN(C(=O)CSc1nc2ccccc2c(=O)n1-c1ccccc1F)C1CCS(=O)(=O)C1` (centres undefined) came in with a kinetic solubility of 9.5 µg/mL (≈ 20 µM). As for `Cc1ccc(SC(=O)c2c(C)noc2-c2cc(C)on2)cc1`, the kinetic solubility was 3 µg/mL (≈ 9.54 µM). `CCOC(=O)c1cc(CC)sc1/N=C/C1C(=O)CCCC1=O`: the solubility (kinetic) came to 19.5 µg/mL (≈ 60.7 µM). On to `O=Cc1c(NCCN2CCOCC2)c2ccccc2[nH]c1=O`, for which the kinetic solubility is > 45.2 µg/mL. The molecule `Cn1c(CNC(=O)c2ccc(F)cc2)cc2ccccc21` came in with a kinetic solubility of 24.7 µg/mL (≈ 87.5 µM).

In turn, `Cc1nc2ccc(NC(=O)CSc3ccccc3)cc2s1` yielded a kinetic solubility of 46 µg/mL (≈ 146 µM). Turning to `CC(Oc1ccccc1)C(=O)N1CCc2ccccc2C1` (centres undefined), the kinetic solubility was > 42.2 µg/mL.

On to `COc1ccc(C(=O)NCC(=O)c2ccccc2)cc1`, for which the kinetic solubility was > 40.4 µg/mL.

As to `CC1CC(C)CN(C(=O)c2cc3ccccc3o2)C1` (centres undefined), the solubility (kinetic) was 28.7 µg/mL (≈ 112 µM).

The molecule `CCOC(=O)CSc1nc2cc(C(F)(F)F)cnc2n1C` came in with a solubility (kinetic) of 44.9 µg/mL (≈ 141 µM). On to `COc1ccc(OCC(=O)NC2CCCCCCC2)cc1`, for which the solubility (kinetic) is 37.7 µg/mL (≈ 129 µM).

With `O=C(Nc1cc([N+](=O)[O-])ccc1O)NC1CCS(=O)(=O)C1` (centres undefined), the kinetic solubility is > 47.3 µg/mL. The molecule `O=C(COC(=O)c1cc(Cl)nc(Cl)c1)NC1CCCCCC1` returned a solubility (kinetic) of 5.9 µg/mL (≈ 17.1 µM).

Turning to `O=C(c1ccc(Cn2cc([N+](=O)[O-])cn2)o1)N1CCCC1`, the kinetic solubility was > 43.5 µg/mL.

With `O=C(NC1CC2CCC(C1)N2Cc1ccccc1)c1cccc(F)c1` (centres undefined), the solubility (kinetic) was > 50.8 µg/mL. As to `Cc1ccccc1NCN1C(=O)C2CCC(C)(C1=O)C2(C)C` (centres undefined), the kinetic solubility was 30.6 µg/mL (≈ 102 µM).

Consider `CCN1CCN(c2nc3c(c(=O)[nH]2)CCC3)CC1`, for which the solubility (kinetic) was found to be 36.1 µg/mL (≈ 145 µM). For `COc1ccccc1NC(=O)c1ccc(NC(=O)COC(=O)c2cccnc2Cl)cc1`, the kinetic solubility was 7.4 µg/mL (≈ 16.8 µM). The result for `CSc1nc(N)nc(C2CC2)n1` reads 24.4 µg/mL (≈ 134 µM); that for `CCCNC(=O)NC(=O)CSc1cccc(C(F)(F)F)c1`, 12.9 µg/mL (≈ 40.3 µM); that for `CC(C)(C)CC(=O)Nc1ccc(S(=O)(=O)NC2=NCCCCC2)cc1`, > 54.8 µg/mL. The result for `COc1cc(NC(=O)Cc2ccccc2)ccc1NC(=O)c1ccccc1` reads < 0.4 µg/mL. The molecule `CN(Cc1nc(-c2ccc(C(F)(F)F)cc2)no1)C1CCOCC1` yielded a kinetic solubility of 37.3 µg/mL (≈ 109 µM). Under `Cc1ccc(C(=O)N2CCN(c3nc4ccccc4n3C)CC2)cc1` stands > 50.2 µg/mL; under `O=C(COC(=O)CCC(=O)c1cccs1)NC1CC1`, > 42.2 µg/mL. `COc1ccc(/C=C/C(=O)Nc2ccccc2F)cc1S(=O)(=O)N1CCOCC1` gave a kinetic solubility of 37.5 µg/mL (≈ 89.2 µM).

`Cc1nn(C)c(C)c1/C=C/C(=O)O`: the kinetic solubility is > 27 µg/mL. Regarding `Cc1nnc(SCC(=O)Nc2cccc(N)c2)n1-c1ccccc1`, the kinetic solubility was > 50.9 µg/mL. `Cc1noc(C)c1C(=O)Nc1cc(Cl)ccc1N1CCOCC1` returned a solubility (kinetic) of 13.5 µg/mL (≈ 40.2 µM). Under `CC(=O)NCCc1nc2ccccc2n1CCOc1ccc(C)cc1` stands > 50.6 µg/mL; under `CCc1ccc(NC2=CC(=O)CC(C)(C)C2)cc1`, 16.1 µg/mL (≈ 66.2 µM); under `O=C(NCc1ccccc1)c1nc2ccccc2s1`, 17.4 µg/mL (≈ 64.8 µM).

As for `CCOc1ccc(OCCC(=O)OCC(=O)NC2CC2)cc1`, the solubility (kinetic) is > 46.1 µg/mL.

With `CCCn1c2ccccc2c2cnn(CC(=O)O)c(=O)c21`, the kinetic solubility is > 42.8 µg/mL.

Consider `S=c1nc[nH]c2nc[nH]c12`, for which the solubility (kinetic) is 22.5 µg/mL (≈ 148 µM). As for `Cc1cccn2c(=O)nc(SCC(=O)N3CC(C)OC(C)C3)nc12` (centres undefined), the solubility (kinetic) is 51.7 µg/mL (≈ 148 µM). On to `Cc1csc(NC(=O)c2ccccc2)n1`, for which the kinetic solubility is > 32.7 µg/mL.

`O=c1[nH]c(NCCO)nnc1Cc1ccccc1`: the solubility (kinetic) was > 36.9 µg/mL. In turn, `O=C(COC(=O)C12CC3CC(CC(Cl)(C3)C1)C2)N1CCCCC1` returned a solubility (kinetic) of 27.5 µg/mL (≈ 80.9 µM).

`Nc1cccc2c1C(=O)N(CCOc1ccccc1F)C2=O` showed a solubility (kinetic) of 20.3 µg/mL (≈ 67.6 µM).

In turn, `COc1ccc(C(=O)NC2CCCc3ccccc32)cc1` (centres undefined) gave a kinetic solubility of 6.5 µg/mL (≈ 23.1 µM). For `CCC(=O)Nc1ccc(/C=C(\C(C)=O)C(=O)c2ccccc2)cc1`, the kinetic solubility is > 48.2 µg/mL. Regarding `Cc1ccc(CNC(=O)[C@@H](NC(=O)Cc2ccccc2)C(C)C)cc1`, the kinetic solubility was 7.4 µg/mL (≈ 21.9 µM). For `N#Cc1cccc(NC(=O)Cc2ccccc2)c1`, the solubility (kinetic) is > 35.4 µg/mL.

Take `COCc1cc(=O)[nH]c2c1c(-c1ccccc1)nn2C`: the kinetic solubility was > 40.4 µg/mL. In turn, `CCC(=O)c1ccc(OC(C)C(=O)NC2(C#N)CCCCC2)cc1` (centres undefined) displayed a solubility (kinetic) of 25 µg/mL (≈ 76.1 µM).

With `CCOC(CNc1ncnc2sc(-c3ccccc3)cc12)OCC`, the solubility (kinetic) was determined as 18.6 µg/mL (≈ 54.2 µM). As for `COc1ccc(OCC(O)CNC(=O)Nc2ccc(C(C)(C)C)cc2)cc1` (centres undefined), the kinetic solubility was < 0.4 µg/mL. The result for `COC(=O)Nc1nc(-c2cc(Cl)ccc2Cl)cs1` reads < 0.3 µg/mL. Consider `CC(=O)/C(C#N)=C1\NC(=O)C(Cc2ccccc2C)S1` (centres undefined), for which the kinetic solubility was > 43 µg/mL. Take `Cc1ccc2nc(NCc3ccccc3)c(C#N)cc2c1`: the solubility (kinetic) is 2.8 µg/mL (≈ 10.2 µM).

`CCOc1ccc(NC(=O)N2CCc3ccccc3C2)cc1` returned a kinetic solubility of 3.7 µg/mL (≈ 12.5 µM). As to `O=c1cc(O)c2c(=O)n(Cc3ccccc3)c3ccccc3c2o1`, the solubility (kinetic) came out at 32.6 µg/mL (≈ 102 µM). `COCCCNC(=O)COc1ccc2oc3c(c2c1)CCCC3` returned a kinetic solubility of 44.2 µg/mL (≈ 139 µM). In turn, `OCc1ccccc1CN1CCCCCC1` showed a kinetic solubility of 28.8 µg/mL (≈ 131 µM). For `CCN(CC)S(=O)(=O)c1cc(NS(=O)(=O)c2cccs2)ccc1C`, the kinetic solubility was > 58.3 µg/mL.

With `Cc1ccc(NC(=O)CNc2cccc(Br)c2)cc1S(=O)(=O)N1CCOCC1`, the kinetic solubility worked out at 14.3 µg/mL (≈ 30.5 µM). `CCc1ccc(NC(=O)/C(C#N)=C/c2ccncc2)cc1`: the solubility (kinetic) came out at 8.8 µg/mL (≈ 31.7 µM). Turning to `N#Cc1c(Nc2ccccc2)s[nH]c1=O`, the kinetic solubility was > 32.6 µg/mL. `O=C(Nc1ccc(Cl)cc1)C1CCCCN1S(=O)(=O)c1ccccc1` (centres undefined) returned a solubility (kinetic) of 24.7 µg/mL (≈ 65.2 µM).

Take `COCc1c(C(=O)OCC(=O)c2ccc[nH]2)oc2ccccc12`: the solubility (kinetic) was 11.1 µg/mL (≈ 35.4 µM).

In the case of `NS(=O)(=O)c1cccc(NC(=O)C2CC(=O)N(Cc3ccco3)C2)c1` (centres undefined), the kinetic solubility was > 54.5 µg/mL. Turning to `Cc1cc(=O)oc2cc(NC(=O)c3ccccc3Cl)ccc12`, the kinetic solubility is 8 µg/mL (≈ 25.5 µM). The molecule `Cc1ccccc1NC(=O)c1ccccc1N(C)S(=O)(=O)c1ccccc1` yielded a kinetic solubility of 46.3 µg/mL (≈ 122 µM). Consider `CCn1c(SC)nc2cc(S(=O)(=O)N3CCCCC3)ccc21`, for which the solubility (kinetic) came out at 43.6 µg/mL (≈ 128 µM).

Take `Cc1ccc2nc(SCC(=O)c3ccccc3)nc(=O)n2c1`: the kinetic solubility was found to be 33 µg/mL (≈ 106 µM).

With `COc1ccccc1C(=O)Nc1nc(C)cc(C)n1`, the solubility (kinetic) is 31.7 µg/mL (≈ 123 µM). In the case of `O=C(Cc1csc(-c2ccccc2)n1)NCc1cccs1`, the kinetic solubility stood at 15.6 µg/mL (≈ 49.6 µM). Turning to `COc1ccc(C(=O)NCCc2c[nH]c3ccc(OC)cc23)cc1`, the kinetic solubility was > 48.7 µg/mL.

As for `O=[N+]([O-])c1ccc(Nc2nc(Cl)nc(NCCO)n2)cc1`, the solubility (kinetic) stood at 2.6 µg/mL (≈ 8.37 µM). On to `CCN(CC(=O)Nc1c(F)cccc1F)C(=O)CCCc1c[nH]c2ccccc12`, for which the kinetic solubility was determined as 7.4 µg/mL (≈ 18.5 µM). Molecule `CC(C)[C@H](NC(=O)c1ccccc1)C(=O)OCC(=O)Nc1sccc1C(N)=O` yielded a solubility (kinetic) of 19 µg/mL (≈ 47.1 µM). In the case of `Cc1ccc(-c2nnc(SCC(=O)NC3CCCC3)n2N)cc1`, the kinetic solubility was > 49.7 µg/mL. Consider `O=C(NCCOc1ccc(Cl)cc1)C1CCCCC1`, for which the kinetic solubility amounted to 14.9 µg/mL (≈ 52.9 µM). As to `Cn1c(=S)[nH]c2sc3c(c2c1=O)CCC(C(C)(C)C)C3` (centres undefined), the solubility (kinetic) is < 0.3 µg/mL. `CCOc1ccc(CN(C)CC(=O)NCc2ccccc2)cc1`: the solubility (kinetic) is 34.8 µg/mL (≈ 111 µM). The molecule `Cc1c(Cl)cccc1NC(=S)NCC(O)c1ccccc1` (centres undefined) displayed a kinetic solubility of 46.7 µg/mL (≈ 146 µM). Under `CC(C)CCOc1ccc(C(=O)C[N+]2(C)CCOCC2)cc1.[I-]` stands 38.4 µg/mL; under `O=[N+]([O-])/C=C/c1ccc2c(ccn2Cc2ccccc2)c1`, 0.6 µg/mL (≈ 2.16 µM); under `C/C(=N/NC(=O)CNC(=O)c1ccco1)c1ccco1`, > 41.3 µg/mL.

`Cc1cccc(-c2noc(CCC(=O)NC3CCCCC3)n2)c1` came in with a kinetic solubility of 3.4 µg/mL (≈ 10.8 µM). For `CN(C)C(=O)Oc1cccc([N+](C)(C)C)c1.COS(=O)(=O)[O-]`, the solubility (kinetic) was > 50.2 µg/mL. On to `O=C1CN(C(=S)Nc2ccccc2Cl)CCN1`, for which the solubility (kinetic) is > 40.5 µg/mL.

`O=C(NC(=S)Nc1cccc2ncccc12)c1cccs1`: the kinetic solubility amounted to 1.7 µg/mL (≈ 5.42 µM). The molecule `CCOc1ccc(NC(=O)COC(=O)CC2CC3CCC2C3)cc1` (centres undefined) gave a solubility (kinetic) of 16.9 µg/mL (≈ 51 µM). In turn, `Cc1ccc(N2CN(CCc3ccccc3)CNC2=S)cc1` showed a solubility (kinetic) of 6.5 µg/mL (≈ 20.9 µM). For the molecule `COCc1c(C(=O)NCCc2ccc(OC(F)F)cc2)oc2ccccc12`, the solubility (kinetic) was found to be 13.5 µg/mL (≈ 36 µM). As to `Cn1c(=O)c(S(=O)C2CCCCC2)c(O)c2ccccc21` (centres undefined), the kinetic solubility was > 45.8 µg/mL.

In turn, `COc1ccc(S(=O)(=O)N2CCOCC2)cc1NC(=O)CN1CCCc2ccccc21` displayed a kinetic solubility of 2.9 µg/mL (≈ 6.51 µM). In the case of `O=C(COC(=O)c1cc(S(=O)(=O)N2CCOCC2)ccc1F)Nc1ccc2c(c1)OCO2`, the kinetic solubility is 54.8 µg/mL (≈ 117 µM). In turn, `Cc1ccc(Oc2nc3c(c(=O)n(C)c(=O)n3C)n2C)cc1C` gave a kinetic solubility of 40 µg/mL (≈ 127 µM). Consider `O=C(Nc1nc2ccccc2[nH]1)C1CCC1`, for which the kinetic solubility was determined as 6 µg/mL (≈ 27.9 µM). `COc1ccc(OC(=O)c2cnc3n(c2=O)CCS3)cc1` gave a solubility (kinetic) of 35 µg/mL (≈ 115 µM). In turn, `O=[N+]([O-])c1ccccc1S(=O)(=O)NCCSCc1ccco1` gave a solubility (kinetic) of 51 µg/mL (≈ 149 µM).

In the case of `COC(=O)c1sccc1N/C=C(\C#N)S(=O)(=O)C(C)(C)C`, the kinetic solubility is 2.3 µg/mL (≈ 7 µM). Consider `Cc1ccc(Cc2nc3ccccc3[nH]2)cc1`, for which the kinetic solubility stood at 31.8 µg/mL (≈ 143 µM). For the molecule `CCCN(CCC)C(=O)Cc1ccc(F)cc1`, the kinetic solubility came to 28 µg/mL (≈ 118 µM). Turning to `Cc1ccccc1-c1nc2cc(Cl)ccc2c(=O)o1`, the solubility (kinetic) is < 0.6 µg/mL. `COc1ccc(-c2ncncc2-c2ccccc2)c(O)c1` displayed a kinetic solubility of 11.6 µg/mL (≈ 41.7 µM). For `CC(=O)c1c(C)[nH]c(C(=O)NCc2cccc(Cl)c2)c1C`, the kinetic solubility came to 18.9 µg/mL (≈ 62 µM).

For orientation: solubility (kinetic) means the concentration staying in solution when a stock, usually in DMSO, is diluted into the medium.
